Series [1] is described as follows: DRUGMATRIX: Leukotriene, BLT (LTB4) radioligand binding (ligand: [3H]LTB4). The format is cell membranes, Membrane. The conditions noted are these: u-937; Not Active = under 50% inhibition at 10 µM.
Series [2] has as its target T1, Interstitial collagenase (Homo sapiens, UniProt P03956).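 Also: MMP-1 enzyme inhibition assay using a peptide substrate; in other assays of this panel Not Active means under 50% inhibition at 10 µM.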
T1 sequence (P03956 whole entry): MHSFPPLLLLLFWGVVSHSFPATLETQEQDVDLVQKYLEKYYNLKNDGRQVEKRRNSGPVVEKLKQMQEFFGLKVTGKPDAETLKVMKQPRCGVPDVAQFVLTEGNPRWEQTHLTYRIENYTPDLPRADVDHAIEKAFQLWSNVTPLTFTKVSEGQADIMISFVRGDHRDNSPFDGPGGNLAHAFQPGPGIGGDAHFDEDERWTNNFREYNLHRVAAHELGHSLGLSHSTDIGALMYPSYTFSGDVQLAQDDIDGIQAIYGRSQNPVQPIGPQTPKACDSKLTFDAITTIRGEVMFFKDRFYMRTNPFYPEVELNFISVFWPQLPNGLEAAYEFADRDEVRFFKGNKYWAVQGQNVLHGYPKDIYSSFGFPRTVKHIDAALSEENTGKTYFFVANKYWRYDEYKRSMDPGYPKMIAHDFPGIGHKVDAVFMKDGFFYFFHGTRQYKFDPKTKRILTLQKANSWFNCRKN
The series can be described thus: biochemical. It counts as tissue-based, Rheumatoid synovial fibroblasts.

Series [3] in a line: DRUGMATRIX: Phosphodiesterase PDE4 enzyme inhibition (substrate: [3H]cAMP + cAMP). The conditions noted are these: u-937; Not Active = under 50% inhibition at 10 µM.
For series [4], the target named is 5-hydroxytryptamine receptor 2B (Homo sapiens, UniProt P41595). It counts as cell membranes, CHO-K1, Membrane. The conditions noted are these: for Ki: read-out: Ki. As to all read-outs here: in other assays of this panel Not Active means under 50% inhibition at 10 µM.
The target of series [5] is T2, Cytochrome P450 2A6 (Homo sapiens, UniProt P11509). Also: in other assays of this panel Not Active means under 50% inhibition at 10 µM.
T2 sequence (P11509 whole entry): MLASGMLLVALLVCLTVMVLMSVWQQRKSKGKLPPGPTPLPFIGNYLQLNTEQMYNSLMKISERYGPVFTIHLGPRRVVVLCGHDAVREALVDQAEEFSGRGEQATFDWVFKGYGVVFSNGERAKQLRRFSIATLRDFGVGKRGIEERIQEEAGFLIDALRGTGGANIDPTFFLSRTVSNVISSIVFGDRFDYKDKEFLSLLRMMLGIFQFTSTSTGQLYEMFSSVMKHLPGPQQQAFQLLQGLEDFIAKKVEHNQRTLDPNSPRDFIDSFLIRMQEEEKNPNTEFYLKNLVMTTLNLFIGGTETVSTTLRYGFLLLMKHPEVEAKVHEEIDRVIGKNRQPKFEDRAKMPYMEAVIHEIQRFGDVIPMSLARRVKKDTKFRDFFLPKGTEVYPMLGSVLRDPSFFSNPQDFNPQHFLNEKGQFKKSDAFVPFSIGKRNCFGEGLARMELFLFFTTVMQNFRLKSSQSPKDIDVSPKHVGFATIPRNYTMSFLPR
The conditions noted are these: bti-tn-5b1-4.

In series [6] the target is T3, Cysteinyl leukotriene receptor 1 (Homo sapiens, UniProt Q9Y271). Also: in other assays of this panel Not Active means under 50% inhibition at 10 µM.
T3 sequence (Q9Y271 whole entry): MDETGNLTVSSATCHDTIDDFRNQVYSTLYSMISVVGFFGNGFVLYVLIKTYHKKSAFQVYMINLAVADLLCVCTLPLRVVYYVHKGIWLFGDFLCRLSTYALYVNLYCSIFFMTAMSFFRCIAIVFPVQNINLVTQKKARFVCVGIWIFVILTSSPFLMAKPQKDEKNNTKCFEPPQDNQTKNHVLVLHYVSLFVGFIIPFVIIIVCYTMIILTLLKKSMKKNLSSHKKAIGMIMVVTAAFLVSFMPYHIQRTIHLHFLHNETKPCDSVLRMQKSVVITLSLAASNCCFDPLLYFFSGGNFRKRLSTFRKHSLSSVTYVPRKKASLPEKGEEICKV
The format is cell membranes, Membrane. The conditions noted are these: cho-k1.

Series [7] deals with T4, Cholecystokinin receptor type A (Homo sapiens, UniProt P32238).
T4 sequence (P32238 whole entry): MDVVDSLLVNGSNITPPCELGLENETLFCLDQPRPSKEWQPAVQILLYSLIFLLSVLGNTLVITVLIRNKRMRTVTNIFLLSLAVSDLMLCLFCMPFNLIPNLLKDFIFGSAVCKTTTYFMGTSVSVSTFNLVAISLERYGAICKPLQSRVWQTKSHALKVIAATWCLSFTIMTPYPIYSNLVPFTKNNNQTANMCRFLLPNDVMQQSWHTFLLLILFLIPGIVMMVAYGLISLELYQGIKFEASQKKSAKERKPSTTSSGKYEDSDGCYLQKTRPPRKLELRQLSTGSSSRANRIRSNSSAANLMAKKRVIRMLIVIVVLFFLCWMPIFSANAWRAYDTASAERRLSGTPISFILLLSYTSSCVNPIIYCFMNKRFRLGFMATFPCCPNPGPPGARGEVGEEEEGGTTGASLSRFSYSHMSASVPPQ
The format is cell membranes, Membrane. The conditions noted are these: 1321-n1.

Each structure is given as a SMILES string.

Chain of 5-hydroxytryptamine receptor 2B (P41595 whole entry): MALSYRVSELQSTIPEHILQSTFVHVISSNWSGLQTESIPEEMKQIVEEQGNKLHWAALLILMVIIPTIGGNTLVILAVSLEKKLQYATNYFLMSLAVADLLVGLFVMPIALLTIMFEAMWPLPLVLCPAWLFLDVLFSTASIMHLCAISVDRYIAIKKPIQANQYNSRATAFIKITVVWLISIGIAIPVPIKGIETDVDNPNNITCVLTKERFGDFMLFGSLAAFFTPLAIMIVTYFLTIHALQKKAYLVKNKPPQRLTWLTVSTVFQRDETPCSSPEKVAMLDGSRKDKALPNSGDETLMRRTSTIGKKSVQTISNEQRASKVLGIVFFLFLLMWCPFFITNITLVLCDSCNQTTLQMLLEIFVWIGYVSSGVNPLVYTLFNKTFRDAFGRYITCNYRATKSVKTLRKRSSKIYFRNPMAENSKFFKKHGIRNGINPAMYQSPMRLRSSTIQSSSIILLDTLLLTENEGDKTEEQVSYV

On to `CC(C)NCC(O)c1ccccc1Cl` (configuration not stated) [CLORPRENALINE], for which the IC50 entry in series [1], in series [2], in series [3], in series [4] (cho-k1), in series [5] and in series [6] was “Not Active” in each case. Also, the IC50 result in series [7] is “Not Active”. The Ki entry in series [1], in series [3] and in series [5] was “Not Active” each time.
In the case of `CN1CCN(C(c2ccccc2)c2ccccc2)CC1` [CYCLIZINE], the IC50 entry in series [1] was “Not Active”; in series [2] it was “Not Active”; in series [3], “Not Active”; in series [4] (read-out: IC50), 0.373 µM; in series [5] it was “Not Active”; in series [6], “Not Active”. The IC50 entry in series [7] is reported as “Not Active”. Besides, the inhibition constant (Ki) result in series [1] was “Not Active”; in series [3], “Not Active”; in series [4], 0.238 µM; in series [5], “Not Active”.
With `CN1C[C@@H]2C[C@H]1CN2c1cc2c(cc1F)c(=O)c(C(=O)O)cn2C1CC1` [DANOFLOXACIN], the IC50 entry in series [1], in series [2], in series [3], in series [4] (cho-k1), in series [5] and in series [6] was “Not Active” each time. For the same compound, the IC50 result in series [7] is given as “Not Active”. Also, the Ki result in series [1], in series [3] and in series [5] was “Not Active” throughout.
As for `COc1cccc2c1C(=O)c1c(O)c3c(c(O)c1C2=O)C[C@@](O)(C(C)=O)C[C@@H]3O[C@H]1C[C@H](N)[C@H](O)[C@H](C)O1` [DAUNORUBICIN], the IC50 entry in series [1], in series [2], in series [3], in series [4] (cho-k1), in series [5] and in series [6] was “Not Active” each time. In series [7], the IC50 entry is “Not Active”. Besides, the Ki result in series [1], in series [3] and in series [5] was “Not Active” in each case.
Consider `O=C(O)c1cc(-c2ccc(F)cc2F)ccc1O` [DIFLUNISAL], for which the IC50 entry in series [1], in series [2], in series [3], in series [4] (cho-k1), in series [5] and in series [6] was “Not Active” in each case. Further, in series [7], the IC50 entry is recorded as “Not Active”. The Ki result in series [1], in series [3] and in series [5] was “Not Active” in each case.
For the compound `C[S+](C)[O-]` [DIMETHYL SULFOXIDE], the IC50 result in series [1], in series [2], in series [3], in series [4] (cho-k1), in series [5] and in series [6] was “Not Active” in each case. In series [7], the IC50 result is listed as “Not Active”. The Ki entry in series [1], in series [3] and in series [5] was “Not Active” in each case.
As to `CC1=NN(c2ccccc2)C(=O)C1` [EDARAVONE], the IC50 result in series [1], in series [2], in series [3], in series [4] (cho-k1), in series [5] and in series [6] was “Not Active” throughout. Moreover, the IC50 result in series [7] was “Not Active”. The Ki result in series [1], in series [3] and in series [5] was “Not Active” throughout.
For `CC(C)C[C@H]1C(=O)N2CCC[C@H]2[C@]2(O)O[C@](NC(=O)[C@@H]3C=C4c5cccc6[nH]cc(c56)C[C@H]4N(C)C3)(C(C)C)C(=O)N12` [ERGOCRYPTINE], the IC50 result in series [1] is “Not Active”; in series [2], “Not Active”; in series [3] it was “Not Active”; in series [4] (read-out: IC50), 0.013 µM; in series [5], “Not Active”; in series [6], “Not Active”. In addition, the IC50 result in series [7] is recorded as “Not Active”. For the same compound, the Ki result in series [1] was “Not Active”; in series [3], “Not Active”; in series [4], 0.00822 µM; in series [5] it was “Not Active”.
In the case of `C[C@]12CC[C@@H]3c4ccc(O)cc4CC[C@H]3[C@@H]1C[C@@H](O)[C@@H]2O` [ESTRIOL], the IC50 result in series [1], in series [2], in series [3], in series [4] (cho-k1), in series [5] and in series [6] was “Not Active” each time. The IC50 entry in series [7] is given as “Not Active”. Moreover, the Ki entry in series [1], in series [3] and in series [5] was “Not Active” each time.
Regarding `C#C[C@]1(O)CC[C@H]2[C@@H]3CCC4=CC(=O)CC[C@]4(C)[C@H]3CC[C@@]21C` [ETHISTERONE], the IC50 entry in series [1], in series [2], in series [3], in series [4] (cho-k1), in series [5] and in series [6] was “Not Active” each time. Moreover, the IC50 entry in series [7] was “Not Active”. For the same compound, the Ki result in series [1], in series [3] and in series [5] was “Not Active” throughout.
With `CC(O)(P(=O)(O)O)P(=O)(O)O` [ETIDRONIC ACID], the IC50 result in series [1], in series [2], in series [3], in series [4] (cho-k1), in series [5] and in series [6] was “Not Active” throughout. For the same compound, the IC50 result in series [7] was “Not Active”. Besides, the Ki entry in series [1], in series [3] and in series [5] was “Not Active” each time.
`CC(C)(C(=O)O)c1ccc(C(O)CCCN2CCC(C(O)(c3ccccc3)c3ccccc3)CC2)cc1` (configuration not stated) [FEXOFENADINE]: the IC50 result in series [1], in series [2], in series [3], in series [4] (cho-k1), in series [5] and in series [6] was “Not Active” each time. In series [7], the IC50 entry is on record as “Not Active”. The Ki entry in series [1], in series [3] and in series [5] was “Not Active” in each case.
For the compound `CN1CCN(c2c(F)cc3c(=O)c(C(=O)O)cn(CCF)c3c2F)CC1` [FLEROXACIN], the IC50 result in series [1], in series [2], in series [3], in series [4] (cho-k1), in series [5] and in series [6] was “Not Active” each time. Besides, in series [7], the IC50 result is “Not Active”. Further, the Ki result in series [1], in series [3] and in series [5] was “Not Active” in each case.
Take `O=c1[nH]c(=O)n([C@H]2C[C@H](O)[C@@H](CO)O2)cc1F` [FLOXURIDINE]: the IC50 entry in series [1], in series [2], in series [3], in series [4] (cho-k1), in series [5] and in series [6] was “Not Active” in each case. Also, the IC50 result in series [7] is listed as “Not Active”. Further, the Ki result in series [1], in series [3] and in series [5] was “Not Active” each time.

Source of the values: ChEMBL document CHEMBL1909046, “DrugMatrix in vitro pharmacology data”.
